Columns and labels:
[1] = biological target: Leukemia virus reverse transcriptase (Moloney murine leukemia virus, UniProt P03355); settings: cited from earlier work
[2] = system: CD11b on monocytes and neutrophils; experiment: Leukocyte activation (CD11b expression) by flow cytometry; assay type: cell-based, human; settings: FIG. 3; 10 min; collagen 0.125-0.5 μg/ml; A1 dimer 0.3 mM, aspirin 100 μM
Protocol: Platelet-leukocyte conjugate formation was measured in the same stirred samples used to measure platelet aggregation. Sub samples were taken 4 min or 10 min following the addition of agonist and transferred into the appropriate antibody or antibody mixture. These were then incubated in the dark at room temperature for not less than 20 min. Following red cell lysis and a washing procedure the cell suspensions were applied to either the FACScan or the LSRII flow cytometer. Leukocytes were identified by logical gating from dot plots of forward scatter (cell size) and side scatter (cell granularity) profiles acquired with linear amplification. […] Fluorescence parameters were acquired with logarithmic amplification. Platelet monocyte (P/M) and platelet neutrophil (P/N) conjugates were quantified as median CD42a (FITC) fluorescence of the monocyte (P/M mf) or neutrophil population (PIN mf). Leukocyte activation was measured by CD11b (AlexaFluor647) expression (CD11b-M for monocytes and CD11b-N for neutrophils). Platelet activation (P-selectin expression) was measured by CD62P (PE) positivity of the platelets associated with leukocytes as (CD62P-M on P/M and CD62P-N on PIN). […]
Blood was obtained from three different volunteers and the platelet aggregation (4 min) and platelet/leukocyte conjugate formation (10 min) was measured in response to collagen (0, 0.125, 0.25 and 0.5 μg/ml). […]

[3] = system: platelets in whole blood; experiment: Collagen-induced platelet aggregation in whole blood (platelet counting); assay type: cell-based, human; settings: collagen 0.125-0.5 μg/ml, A1 dimer 0.3 mM; for collagen-induced platelet aggregation: FIG. 2, 4 and 10 min, ASA 100 μM
Protocol: Platelet aggregation of A1 dimer [A1D] was measured using a platelet counting technique, and formation of platelet/monocyte conjugates (P/M) and platelet/neutrophil conjugates (PIN) by flow cytometry. In later experiments the activation state of platelets associated with leukocytes (CD62P) was also measured and also the activation state of the leukocytes themselves (CD11b).
A1 dimer [A1D] was dissolved in ethanol. Once in solution, further dilution with saline was possible. Hirudin, (Revasc™) was obtained from Novartis (Basel, Switzerland) and was stored as a 5 mg/ml solution in saline in a glass vial at −20° C. Collagen (Nycomed) was from Axis Shield Diagnostics (Dundee, UK). Concentrations were prepared from the stock solution (1 mg/ml) using the isotonic glucose buffer supplied by the manufacturer. Aspirin (acetyl salicylic acid-ASA), adenosine diphosphate (ADP), platelet activating factor (PAF), arachidonic acid (AA) and epinephrine were from Sigma. Fixing solution consisted of 140 mM NaCl containing 0.16% w/v formaldehyde, 4.6 mM Na2EDTA, 4.5 mM Na2HP04 and 1.6 mM KH2PO4, pH 7.4.
Blood samples were studied using the Multi-Sample Agitator (MSA) produced by the Medical Engineering Unit (University of Nottingham). The MSA is used to maintain blood samples at 37° C. and to agitate small samples of blood at a stir speed of 1,000 rpm as required. […]
Following the 30 min pre-incubation, aliquots of blood (480 μl) were dispensed into small polystyrene tubes each containing a stir bar and stirred for 2 min in the MSA. […] The platelet count in the fixed samples was determined using the UltraFlo-100 Whole Blood Platelet Counter. Platelet aggregation was calculated as the percentage loss of single platelets with reference to the platelet count of the EDTA sample.
Blood was obtained from three different volunteers and the platelet aggregation and platelet/leukocyte conjugate formation was measured in response to collagen (0, 0.125, 0.25 and 0.5 μg/ml). […] Aggregation was measured at 4 and 10 min following agonist addition and platelet/leukocyte conjugate formation only at 10 min. […]

[4] = system: rabbit aortic rings; experiment: Ex vivo endothelium-dependent relaxation of NE pre-constricted rabbit aortic rings; settings: for relaxation in pre-contracted aortic rings, dose dependence: FIGS. 1A-1C, 10^-9 to 10^-4 M cumulative; for vasorelaxation, percent relaxation of NE constricted rings: concentration 10^−4M, +/−SE; for relaxant potency compared with positive control acetylcholine: significant at p=0.005 for A1 dimer
Protocol: Effect of A-type procyanidins on endothelium-dependent relaxation was tested in an ex vivo experiment performed as previously described by Karim et al., J. Nutrl Suppl., 130 (8S): […]-[…] (2000), the relevant portions of which are hereby incorporated herein by reference. The advantage of using this method is that it assesses functional cardiovascular end points. […] In summary, rabbit aortic rings were obtained from male New Zealand White rabbits. Following isolation, the rings were mounted in oxygenated Kreb's buffer, and pre-constricted with NE (10^-6 M). When the tension had reached a steady state, cumulative concentrations of the test compounds were applied (10^-9 to 10^-4 M). A positive control acetylcholine (10^-6M) and a negative control L-NAME were included in the experiment. Use of L-NAME, which is a NO synthase (NOS) inhibitor, allows for differentiating between endothelium dependent and endothelium independent relaxation events. Denuding of aortic rings represent a similar control. 400 U/mL of catalase was added into the aortic bath prior to the addition of each of the test compounds to ensure that the observed effects are not caused by hydrogen peroxide (H202) generation in the culture medium. The relaxation response was measured as a function of the decrease in the tension (g) exerted by the aortic rings over time. Data obtained were expressed as a percent relaxation of the norepinephrine (NE) constricted rings. The same statistical approach as described above was used. Dose response curves were obtained by plotting the average percent relaxation (+/-SE) against the concentrations used.

[5] = system: human umbilical vein endothelial cell (HUVEC); experiment: NO production (NOx) in serum-free HUVEC culture; assay type: cell-based
Protocol: The compounds obtained as described in Example 1, were investigated for their effect on nitric oxide (NO) production and vasorelaxation using serum-free human umbilical vein endothelial cell (HUVEC) culture system in vitro and rabbit aortic ring model ex vivo, respectively. NO production by endothelial cells and relaxation of pre-constricted aortic rings are two main markers for evaluating cardiovascular effects of test compounds.
HUVECs obtained from a single donor were cultured in serum free, low protein (0.5 g/l), antibiotic-free cell culture medium supplemented with essential growth factors, nutrients and minerals. […] The cell culture medium was substituted with apo-transferrin, superoxide dismutase, and catalase to exclude secondary effects of test compounds involving their auto-oxidation mediated hydrogen peroxide formation.
(§1) Test compounds were evaluated with respect to their potential to acutely (2 hours) and chronically (5 doses given in a 24 h period) modulate NO production. Positive controls (acetylcholine and/or histamine) and negative control L-NNMA (NO synthase inhibitor) were included in all experiments. Cell counts and total protein were used to assess intra-assay variation. Potential toxic effects of tested compounds were also monitored (MTT reduction was measured).
NO production was evaluated by measuring the total amount of all major nitric oxide end products (NOx, including nitrate, nitrite, nitrosothiols) present in the cell culture medium. […] The amount of NO released from the culture medium was subsequently evaluated by measuring the chemiluminescence emitted during the stoichiometrical reaction between ozone and NO using NO Analyzer (Sievers Instruments, Inc. Boulder, Colo.).
The data presented herein were obtained from three experiments and were expressed as the concentration of NO present (in μmol/l) (as NOx) in the cell culture medium+/−standard deviation (SD). The data were corrected for the NOx intrinsically present in the fully supplemented cell culture medium and normalized with respect ot the volume of media from which the ample was drawn. Data were analyzed using Student's t-test with a 95% level of confidence. P values equal to or less than 0.005 were defined as statistically significant.
(§2) For the acute effect test, HUVECs were incubated with a single dose of A2 dimer and A-type trimer for 2 and 24 hours at concentrations of 100 nM, 1 μM, and 10 μM at 37 C and 5% CO2. No effect was observed on NO production after 2 hours.
For the chronic effect test, HUVECs were incubated with 5 subsequent doses of test compounds, each for 24 hours. After each 24 hour treatment, culture medium was replaced. A2 dimer and A-type trimer were tested.

[6] = system: HUVECs; experiment: MTT reduction, toxic effects on HUVECs; assay type: cell-based, human; settings: acute effect test
Protocol: as §1, §2

[7] = system: platelet/monocyte and platelet/neutrophil conjugates in whole blood; experiment: Platelet-leukocyte conjugate formation (P/M, P/N) by flow cytometry; assay type: cell-based, human; settings: FIG. 2; 10 min; collagen 0.125-0.5 μg/ml; ASA 100 μM
Protocol: Platelet aggregation of A1 dimer [[MUT]] was measured using a platelet counting technique, and formation of platelet/monocyte conjugates (P/M) and platelet/neutrophil conjugates (PIN) by flow cytometry. In later experiments the activation state of platelets associated with leukocytes (CD62P) was also measured and also the activation state of the leukocytes themselves (CD11b). Blood was obtained from healthy volunteers, who denied taking any aspirin or NSAIDS in the previous 10 days. This blood was dispensed into graduated polystyrene tubes that contained hirudin (final concentration 50 μg/ml) and a small volume of the flavanol under investigation or ethanol as control. The final concentration of ethanol in the blood was always 0.3%. […] Platelet-leukocyte conjugate formation was measured in the same stirred samples used to measure platelet aggregation. […] Fluorescence parameters were acquired with logarithmic amplification. Platelet monocyte (P/M) and platelet neutrophil (P/N) conjugates were quantified as median CD42a (FITC) fluorescence of the monocyte (P/M mf) or neutrophil population (PIN mf). Leukocyte activation was measured by CD11b (AlexaFluor647) expression (CD11b-M for monocytes and CD11b-N for neutrophils). Platelet activation (P-selectin expression) was measured by CD62P (PE) positivity of the platelets associated with leukocytes as (CD62P-M on P/M and CD62P-N on PIN). […]

[8] = experimental animal studies; cited from earlier work
[9] = acute test, single dose, after 2 hours, 100 nM, 1 μM and 10 μM
[10] = acute test, single dose, after 24 hours, 1 μM
[11] = acute test, single dose, after 24 hours, 10 μM, not statistically significant
[12] = typical response of positive control

Question: Which “inhibition of Leukemia virus reverse transcriptase activity” value [1] does the source give for `Oc1cc(O)c2c(c1)O[C@H](c1ccc(O)c(O)c1)[C@@H](O)C2` [(+)-catechin] here?
Answer: Its value is “inhibit”.

Question: With `Oc1cc(O)c2c(c1)O[C@H](c1ccc(O)c(O)c1)[C@H](O)C2` [(−)-epicatechin] as the compound, how does the “inhibition of Leukemia virus reverse transcriptase activity” value [1] read?
Answer: Its value is “inhibit”.

Question: Which results are given for `Oc1cc(O)c2c(c1)O[C@@]1(c3ccc(O)c(O)c3)Oc3cc(O)c4c(c3[C@@H]2[C@H]1O)O[C@H](c1ccc(O)c(O)c1)[C@@H](O)C4` [A1 dimer, epicatechin-(4β→8; 2β→O→7)-catechin]?
Answer: leukocyte activation (CD11b) [2]: did not inhibit; collagen-induced platelet aggregation [3]: inhibited; collagen induced aggregation ([3]; FIG. 3, 4 min): inhibited; relaxation in pre-contracted aortic rings, dose dependence [4]: dose-dependent relaxation; vasorelaxation, percent relaxation of NE constricted rings [4]: 93.20+/−3.46%; relaxant potency compared with positive control acetylcholine [4]: more potent relaxants that the positive control

Question: Which “effect on NO production” value [5, 9] does the source give for `Oc1cc(O)c2c(c1)O[C@@]1(c3ccc(O)c(O)c3)Oc3cc(O)c4c(c3[C@@H]2[C@H]1O)O[C@H](c1ccc(O)c(O)c1)[C@H](O)C4` [A2 dimer, epicatechin-(4β→8; 2β→O→7)-epicatechin] here?
Answer: The value was “No effect”.

Question: What about the “effect on NO production” value [5, 10] of the same compound?
Answer: The value was “no effect”.

Question: And the “effect on NO production” value [5, 11]?
Answer: Its value is “increased NO production above the control level”.

Question: What about the “toxic effects, MTT assay” value [6] of the same compound?
Answer: Its value is “did not have toxic effects”.

Question: And the “relaxation in pre-contracted aortic rings, dose dependence” value [4]?
Answer: The value was “dose-dependent relaxation”.

Question: What about the “vasorelaxation, percent relaxation of NE constricted rings” value [4] of the same compound?
Answer: Its value is 85.00+/−2.91%.

Question: What about the “relaxant potency compared with positive control acetylcholine” value [4] of the same compound?
Answer: The value was “more potent relaxants that the positive control”.

Question: Which results are given for `Oc1cc(O)c2c(c1)O[C@@]1(c3ccc(O)c(O)c3)Oc3cc(O)c4c(c3[C@@H]2[C@H]1O)O[C@H](c1ccc(O)c(O)c1)[C@@H](O)C4c1c(O)cc(O)c2c1CC(c1ccc(O)c(O)c1)C(O)C2` (some centres unmarked) [A-type trimer]?
Answer: effect on NO production [5, 9]: No effect; effect on NO production [5, 10]: no effect; effect on NO production [5, 11]: increased NO production above the control level; effect on NO production ([5]; chronic test, 5 subsequent doses, each for 24 hours, p=0.041): statistically significant increase in NO production; toxic effects, MTT assay [6]: did not have toxic effects; relaxation in pre-contracted aortic rings, dose dependence [4]: dose-dependent relaxation; vasorelaxation, percent relaxation of NE constricted rings [4]: 56.5+/−16.56%

Question: For `CC(=O)Oc1ccccc1C(=O)O` [ASA, acetyl salicylic acid, reference compound], which “leukocyte activation (CD11b)” value [2] is on record?
Answer: The value was “no effect”.

Question: What about the “platelet/monocyte conjugates (P/M)” value [7] of the same compound?
Answer: Its value is “effectively inhibited”.

Question: What about the “platelet/neutrophil conjugates (P/N)” value [7] of the same compound?
Answer: The value was “effectively inhibited”.

Question: And the collagen-induced platelet aggregation [3]?
Answer: Its collagen-induced platelet aggregation is “effectively inhibited”.

Question: Which “concentration producing a relaxation response” value [4, 12] does the source give for `CC(=O)OCC[N+](C)(C)C` [Acetylcholine, acetylcholine, reference compound] here?
Answer: The value was 10^−7 M.

Question: What about the “concentration reaching maximal relaxation” value [4, 12] of the same compound?
Answer: The value was 10^−6 M.

Question: For `O=c1c(O)c(-c2ccc(O)c(O)c2)oc2cc(O)cc(O)c12` [quercetin], which anticarcinogenic activity [8] is on record?
Answer: The anticarcinogenic activity was “anticarcinogenic activity”.

Reference: patent US20190269715A1, “COMPOSITIONS AND METHOD OF USE OF A-TYPE PROCYANIDINS” (MARS, INCORPORATED, priority 2004, published 2019)
